Reference: patent US20260355188A1, “COMBINATION THERAPIES USING PRMT5 INHIBITORS AND BCL-2 FAMILY INHIBITORS FOR THE TREATMENT OF CANCER” (MIRATI THERAPEUTICS, INC., priority 2022, published 2026)

What was measured:
LU99 xenograft tumors = experiment: In vivo combination study (LU99 model), Example 1; design: species or system female nu/nu mice; conditions: MRTX1719, ABT-263, ABT-199 each 100 mg/kg PO QD, alone or combined
Text: Immunodeficient female nu/nu mice were implanted with 5×10^6 LU99 cancer cells in 50% Matrigel. Tumor volume measurements were collected using calipers and determined utilizing the formula 0.5×L×W^2 in which L refers to length and W refers to width of each tumor. When tumors reached approximately 125-150 mm^3, animals were randomized to receive A) vehicle, B) a PRMT5 inhibitor, C) navitoclax (ABT-263), D) venetoclax (ABT-199), E) A-1331852, F) the PRMT5 inhibitor and navitoclax, F) the PRMT5 inhibitor and venetoclax, or G) the PRMT5 inhibitor and A-1331852 all administered orally (PO) with the indicated dose and schedule for 20-34 days. Tumor volume was measured twice a week (n=5/treatment group). Average tumor volume and standard error of the mean was calculated and plotted at each study day using GraphPad Prism.
The PRMT5 inhibitor was MRTX1719 administered at 100 mg/kg once a day (QD). MRTX1719 is (2M)-2-(4-(4-(aminomethyl)-1-oxo-1,2-dihydrophthalazin-6-yl)-1-methyl-1H-pyrazol-5-yl)-4-chloro-6-cyclopropoxy-3-fluorobenzonitrile, disclosed as Example 16-8 at p. 307 of the international patent publication No. WO 2021/050915 A1, published 18 Mar. 2021, incorporated by reference in its entirety.
The BCL-2 family inhibitors used in this example, ABT-199 (venetoclax) and ABT-263 (navitoclax), were administered at 100 mg/kg once a day (QD) and supplied by Selleck Chemicals (Houston, TX).

[1] = oral; cited from earlier work

Row | Structure (SMILES) | Average Tumor Volume (LU99 xenograft tumors; day 3) [mm^3] | Average Tumor Volume (LU99 xenograft tumors; day 6) [mm^3] | Average Tumor Volume (LU99 xenograft tumors; day 10) [mm^3] | Average Tumor Volume (LU99 xenograft tumors; day 13) [mm^3] | Average Tumor Volume (LU99 xenograft tumors; day 17) [mm^3] | Average Tumor Volume (LU99 xenograft tumors; day 20) [mm^3] | Average Tumor Volume (LU99 xenograft tumors; day −1) [mm^3] | bioavailable when administered orally [1]
1 | Cn1ncc(-c2ccc3c(=O)[nH]nc(CN)c3c2)c1-c1c(F)c(Cl)cc(OC2CC2)c1C#N (atropisomer, axis not shown; (M)) [MRTX1719, (2M)-2-(4-(4-(aminomethyl)-1-oxo-1,2-dihydrophthalazin-6-yl)-1-methyl-1H-pyrazol-5-yl)-4-chloro-6-cyclopropoxy-3-fluorobenzonitrile] | 215 | 236 | 236 | 260 | 282 | 302 | 153 | –
2 | Cc1c(-c2ccc(N3CCc4cccc(C(=O)Nc5nc6ccccc6s5)c4C3)nc2C(=O)O)cnn1CC12CC3CC(CC(C3)C1)C2 [A-1331852] | – | – | – | – | – | – | – | known to be bioavailable when administered orally
3 | CC1(C)CCC(c2ccc(Cl)cc2)=C(CN2CCN(c3ccc(C(=O)NS(=O)(=O)c4ccc(N[C@H](CCN5CCOCC5)CSc5ccccc5)c(S(=O)(=O)C(F)(F)F)c4)cc3)CC2)C1 [ABT-263, navitoclax] | 236 | 359 | 558 | 737 | 1042 | 1237 | 153 | –
